# Data taken from US11382985B2, “Anti-tumour immune responses to modified self-epitopes” (Scancell Limited, priority 2015, dated 2022).
# Square brackets hold non-standard residues; d marks the D form. Ends that are not written are not given here. Cit = NC(=O)NCCC[C@H](N)C(=O)O
# Tests used:
# B16DR4 tumour = assay: B16DR4 melanoma tumour challenge; assay type: in vivo, DR4 mice
# Method: (§1) C57BL/6 mice (Charles River, UK), HLA-DR4 mice (Taconic, USA), HHDII/DR1 mice (Pasteur institute, France) and the HHD/HLA-DP4 transgenic strain of mouse as described in patent WO2013/017545 A1 (EMMA repository, France) were used, aged between 8 and 12 weeks, and cared for by the staff at Nottingham Trent University. All work was carried out under a Home Office project licence. Peptides were dissolved in PBS to 1 mg/ml and then emulsified (a series of dilutions) with different adjuvants: CpG and MPLA 6 μg/mouse of each (Invivogen, UK), Incomplete Freund's 50 μl/mouse (Sigma, UK), poly I:C 10 μg/mouse (Invivogen, UK), Imiquimod 25 μg/mouse (Invivogen, UK) and GMCSF 10 μg/mouse (Peprotech, UK). Peptides (25 μg/mouse) were injected subcutaneously at the base of the tail. DNA (1 μg/mouse) was coated onto 1.0 μm gold particles (BioRad, Hemel Hempstead, UK) using the manufacturer's instructions and administered intradermally by genegun (BioRad). Homspera (10 nM/mouse) (PeptideSynthetics, UK) was injected intradermally with genegun immunisation. Mice were immunized at either day 0 for peptide immunisation or days, 0 and 7 for genegun immunisation, unless otherwise stated. Spleens were removed for analysis at day 14 for peptide and day 20 for peptide or genegun immunisation unless stated otherwise.
# (§2) For tumour challenge experiments mice were challenged with 2.5×10^4 B16 DR4 cells or 1×10^6 LLC2/LLC2 DR4 cells, 2.5×10^5 Pan02 DR4 cells in matrigel or 4×10^5 B16 HHDII DP4 cells subcutaneously on the right flank 3 days prior to primary immunisation and then were immunised as above. Tumour growth was monitored at 3-4 days intervals and mice were humanely euthanized once tumour reached ≥10 mm in diameter.
# PBMCs [1] = assay: Luminex cytokine analysis of PBMC culture supernatants; assay type: cell-based, human
# Method: A three-step indirect procedure was used for the multiplexed Luminex assay (Invitrogen) for IgG antibodies to IL-10, IL-17, IFNy, TNFα, IL-2 & IL-4. Standard, control, and unknown sera were diluted 1:2 in 50% assay diluent buffer (Invitrogen) & 50% serum free RPMI. Serial standard dilutions were included in each assay. Each dilution of standard, control, and unknown sera was mixed with a set of coupled Luminex microspheres in 96-well filtration plates (Millipore Multiscreen; Millipore Corporation, Bedford, Mass.) and incubated for 2 hours at room temperature with shaking. Microspheres were collected by vacuum filtration and washed with PBST. Biotinylated detector antibody was added to each well for 1 hour at room temperature with shaking. Microspheres were collected by vacuum filtration and washed with PBST. Streptavidin conjugated R-phycoerythrin—was added to each well. Following a 30 minute incubation and a wash step, microspheres were resuspended in PBST, and read in a Biorad BioPlex Luminex analyzer equipped with an XY platform. Data acquisition and analysis performed with Luminex software (BioPlex Systems)
# PBMCs [2] = assay: CFSE proliferation assay on PBMCs; assay type: cell-based, human; details: Donor 4, day 10
# Method: PBMC were isolated from freshly drawn heparinised blood by Ficol-Hypaque (Sigma) gradient centrifugation. PBMC (1.5×10^6 cells/well) were stimulated with single peptides (final concentration 10 μg/ml) in RPMI containing 5% pooled autologous human serum, 2 mM glutamine, 20 mM HEPES and Penicillin-streptomycin (1%) in a final volume of 2 ml. As a negative control PBMC were incubated with medium alone. The PBMC were cultured at 37° C. in an atmosphere of 5% CO2 for 7 and 10 days. To assess proliferation at these times points cells were sampled and stained with surface marker CD4 and CD8 antibodies labelled with PE-Cy5 and efluor 450 respectively. After staining cells were fixed and analysed on a Milteny MACSQuant flow cytometer.
# B16DP4 tumour = assay: B16DP4 melanoma tumour challenge; assay type: in vivo, DP4 transgenic mice; details: peptide immunisation after B16DP4 implant; unimmunized 10%
# Method: as §1, with “Homspera (10 nM/mouse) (PeptideSynthetics, UK) was injected intradermally with genegun immunisation. Mice were immunized at either day 0 for peptide immunisation or days, 0 and 7 for genegun immunisation, unless otherwise stated. Spleens were removed for analysis at day 14 for peptide and day 20 for peptide or genegun immunisation unless stated otherwise.” left out
# as §2
# parental LLC2 tumour = assay: Parental Lewis lung carcinoma LLC2 challenge; assay type: in vivo, DR4 mice; details: challenge four days before peptide immunisation
# Method: as §1, with “Mice were immunized at either day 0 for peptide immunisation or days, 0 and 7 for genegun immunisation, unless otherwise stated. Spleens were removed for analysis at day 14 for peptide and day 20 for peptide or genegun immunisation unless stated otherwise.” left out
# For tumour challenge experiments mice were challenged with 2.5×10^4 B16 DR4 cells or 1×10^6 LLC2/LLC2 DR4 cells, […] above. Tumour growth was monitored at 3-4 days intervals and mice were humanely euthanized once tumour reached ≥10 mm in diameter.
# PBMCs [3] = assay: Intracellular cytokine staining of PBMCs; assay type: cell-based, human; details: donor 4, cultured 13 days in Enolase 241cit, restimulated; label = restimulating peptide
# Method: PBMC cultures were set up as detailed above. On day 14 PBMCs were washed and cultured with synthetic peptide (10 μg/ml) in the presence of brefeldin A for 20 hrs at 37° C. Cells were stained with cell surface markers CD4 and CD8 using PE-Cy5 and efluor450 labelled antibodies respectively. Cells were subsequently fixed and permeabilised and stained with IFNγ PE-Cy7 labelled antibody. After staining cells were fixed and analysed on Miltenyi MACSQuant flow cytometer.
# splenocytes = assay: Screening of citrullinated Enolase peptide pools, ex vivo IFNγ Elispot, DR4 mice; assay type: in vivo, transgenic DR4 mouse; details: single immunisation with pool of 4-6 human citrullinated peptides, 20 μg each, CpG/MPLA, day 14, label = peptide used for restimulation
# Method: C57BL/6 mice (Charles River, UK), HLA-DR4 mice (Taconic, USA), HHDII/DR1 mice (Pasteur institute, France) and the HHD/HLA-DP4 transgenic strain of mouse as described in patent WO2013/017545 A1 (EMMA repository, France) were used, aged between 8 and 12 weeks, and cared for by the staff at Nottingham Trent University. All work was carried out under a Home Office project licence. Peptides were dissolved in PBS to 1 mg/ml and then emulsified (a series of dilutions) with different adjuvants: CpG and MPLA 6 μg/mouse of each (Invivogen, UK), Incomplete Freund's 50 μl/mouse (Sigma, UK), poly I:C 10 μg/mouse (Invivogen, UK), Imiquimod 25 μg/mouse (Invivogen, UK) and GMCSF 10 μg/mouse (Peprotech, UK). […]
# Elispot assays were performed using murine IFNγ, IL-17 and IL-10 capture and detection reagents according to the manufacturer's instructions (Mabtech, Sweden). […] After incubation, captured IFN and IL-10 were detected by biotinylated anti-IFNγ and IL-10 antibodies and developed with a streptavidin alkaline phosphatase and chromogenic substrate. Spots were analysed and counted using an automated plate reader (Cellular Technologies Ltd).
# Screening was performed to identify potential citrullinated Enolase epitopes in mice. […] After 14 days the mice were culled and the immune responses to each peptide within the immunising pool were assessed by ex vivo Elispot (FIG. 2). […]
substance,measurement,setting,value
VIGMDVAASEFF-CIT-SGKYDLD (VIGMDVAASEFF[Cit]SGKYDLD; listed as Homo sapiens) [Enolase 241cit],animals surviving at day 45,"B16DR4 tumour; B16DR4 challenge, three doses of 5 μg in GM-CSF over three weeks, control 0% by day 28",70%
same,"tumour volume, median, day 17 post tumour implant","B16DR4 tumour; peptide immunisation after B16DR4 implant, control median 49 mm^3",0 mm^3
same,survival after 45 days,"B16DR4 tumour; peptide immunisation after B16DR4 implant, unimmunised 15%",50%
same,"IL-17, Granzyme B and TNFα levels above media background",PBMCs [1]; Donor 4 supernatants,higher
same,IFNγ and IL-10 levels above media background,PBMCs [1]; Donor 4 supernatants at each time point,citrullinated peptide specific responses which increased over time
same,IFNγ response,PBMCs [1]; cultures on 3 donors,IFNγ responses
same,"IL-10, TNFα or IL-17 responses",PBMCs [1]; cultures on 3 donors,low level
same,IL-17 production by normal donors,PBMCs [1]; normal donors stimulated with peptide,no IL-17 was produced
same,lymphocytes that are CFSE^lowCD4^+,PBMCs [2],15%
same,survival rate after 60 days,B16DP4 tumour,70%
same,survival time versus unimmunised control,parental LLC2 tumour,small but significant increase in survival time
same,IFNγ positive CD4 cells,PBMCs [3],0.44%
same,IFNγ response to peptide compared to media,splenocytes,significant response
